Results as given in US20200377483A1, “NEW ANTI-MALARIAL AGENT” (MMV MEDICINES FOR MALARIA VENTURE, priority 2016, published 2020).
≈ marks a conversion by molar mass, not a printed value. Where “and” joins values, the source holds several entries; their conditions need not be identical. Identical values can stand only once. Like-named read-outs stand apart in the source and are kept apart here. Marks after values point to notes of the source that are not given here.

Experiments:
[1] = Solubility in biorelevant media; assay type: physicochemical
Procedure: Compounds were each accurately weighed into individual screw cap polypropylene tubes and media added to give a nominal minimum target compound concentration of 2.2 mg/mL. Samples were vortex mixed and placed in a 37° C. incubator where they were continually mixed on an orbital shaker (IKA® VXR basic Vibrax® orbital shaker) at 600 rpm. Incubation times were 1 hour for fasted state simulated gastric fluid (FaSSGF) and 5 hours for fasted and fed state simulated intestinal fluids (FaSSIF-V2 and FeSSIF-V2 respectively). Sampling was carried out by centrifuging each sample at 10,000 rpm for 3 minutes, transferring 300 μL, aliquots into fresh Eppendorf tubes and centrifuging these tubes again at 10,000 rpm for 3 minutes. Triplicate aliquots of each final supernatant were diluted 20-fold in 50% aqueous methanol, and then further diluted in 50% aqueous acetonitrile to be within an appropriate concentration range for analysis by LC-MS. LC-MS methods and validation data for the analysis of solubility samples are shown in Table 2 below and the media composition is shown in Table 3.

[2] = test system: chloroquine-sensitive (NF54) strain of P. falciparum; assay: In vitro antimalarial activity, NF54 strain; assay type: cell-based
Procedure: (§1) The ability of dispiro 1,2,4-trioxolane derivatives according to the invention to show antimalarial efficacy in vitro and in vivo was tested as described in Charman, et al, 2011, PNAS, 108, 4400-4405 against chloroquine-resistant (K1) and chloroquine-sensitive (NF54) strains of P. falciparum in vitro (Vennerstrom et al. 2004, Nature, 430, 900-904).
(§2) The in vivo activity is shown in P. berghei (Pb) infected mice in terms of the percentage of inhibition of parasitemia following compound administration and the number of survival days.

P. berghei = assay: In vivo activity in P. berghei (Pb) infected mice
Procedure: as §1, §2

[3] = test system: artemisinin-resistant P. falciparum isolate from Cambodia; assay: Ring-stage survival assay (RSA0-3h); assay type: cell-based; settings: for RSA values ± SEM (survival): 6 h exposure, 66 h post-treatment
Procedure: Agents Chemother. 57:914-923), but with a few modifications in the drug washing procedure to ensure that no residual peroxide was present during the 66 h post-treatment period. Briefly, 0-3 h post-invasion ring stages were adjusted to 1% parasitemia and 2.5% haematocrit by adding uninfected erythrocytes, transferred in a total volume of 1 mL into 48-well plates and exposed for 6 h to a range of concentrations ([…]) of DHA or one of the compounds tested in this study. After 6 h, cultures were transferred to 15 mL conical tubes, centrifuged at 1400 rpm (400 g) for 2 min and carefully washed 2 times with 12 mL of culture medium. […] After washing, blood pellets were resuspended in complete compound-free culture medium, transferred into new wells and cultured for 66 h in standard conditions. Table 8 below presents the Ring-stage survival assay (RSA) values as tested in Wells et al., 2015, supra for compounds of the invention and comparative compounds.

CLint, H = assay type: in vitro ADME, human; settings: H (first of H, D, R, M)
CLint, D = assay type: in vitro ADME, dog; settings: D (second of H, D, R, M)
CLint, R = assay type: in vitro ADME, rat; settings: R (third of H, D, R, M)
CLint, M = assay type: in vitro ADME, mouse; settings: M (fourth of H, D, R, M)
[4] = test system: 7 CYP isoforms (1A2, 2B6, 2C8, 2C9, 2C19, 2D6, 3A4/5); assay: Cyp inhibition IC50, 7 isoforms, human liver microsomes; assay type: in vitro ADME
Procedure: The assessment of time-dependent inhibition was based on measurement of the “IC50 shift”, whereby the IC50 was measured following pre-incubation of test compound (or reference inhibitor) in the absence or presence of NADPH. A 10-fold dilution step was incorporated following the pre-incubation to minimize reversible product inhibition (by potential metabolites of test compound) such that evidence of time-dependent inhibition is more likely to reflect mechanism-based inhibition. The maximum concentration of test compound in the pre-incubation mixture (containing either 1 or 2 mg/mL microsomal protein and 1.0% v/v DMSO) was 200 μM, and the potential for precipitation of test compound was closely monitored at the time of spiking. […] On this basis, it is assumed that test compounds were fully dissolved at all concentrations in the pre-incubation mixtures. Reference inhibitors (both mechanism-based and reversible inhibitors) were included to validate the assay. […]

[5] = test system: CYP isoforms (1A2, 2B6, 2C8, 2C9, 2C19, 2D6, 3A4/5); assay: Time-dependent CYP inhibition (IC50 shift), CYP isoforms; assay type: in vitro ADME; settings: human liver microsomes, 30 min pre-incubation with or without NADPH
Procedure: Time-dependent CYP inhibition can occur as a result of irreversible interactions of a test compound with a CYP450 enzyme (i.e. mechanism-based inhibition; MBI) or, alternatively, by reversible product inhibition (i.e. whereby the metabolite of the test compound is responsible for inhibition of the CYP). The potential for time-dependent CYP inhibition was assessed using CYP-specific metabolic pathways in human liver microsomes by measuring the formation of metabolites known to be formed by individual CYP isoforms (Table 5) according to the following protocol (probe substrates, metabolites and incubation times):
The assessment of time-dependent inhibition was based on measurement of the “IC50 shift”, whereby the IC50 was measured following pre-incubation of test compound (or reference inhibitor) in the absence or presence of NADPH. A 10-fold dilution step was incorporated following the pre-incubation to minimize reversible product inhibition (by potential metabolites of test compound) such that evidence of time-dependent inhibition is more likely to reflect mechanism-based inhibition. The maximum concentration of test compound in the pre-incubation mixture (containing either 1 or 2 mg/mL microsomal protein and 1.0% v/v DMSO) was 200 μM, and the potential for precipitation of test compound was closely monitored at the time of spiking. […]

[6] = test system: chloroquine-resistant (K1) strain of P. falciparum; assay: In vitro antimalarial activity, K1 strain; assay type: cell-based
Procedure: as §1, §2

[7] = Solubility in biorelevant media; assay type: physicochemical; settings: PBS, pH 7.4

SMILES | Conc. (solubility) ([1]; FaSSGF, 37° C., 1 hour) [µg/mL] | Conc. (solubility) ([1]; FaSSIF-V2, 37° C., 5 hours) [µg/mL] | Conc. (solubility) ([1]; FeSSIF-V2, 37° C., 5 hours) [µg/mL] | % activity (percentage of inhibition of parasitemia) (P. berghei; Pb 1 × 10 mg/kg) [%] | Survival days (P. berghei; Pb 1 × 10 mg/kg) [days] | % activity (percentage of inhibition of parasitemia) (P. berghei; Pb 1 × 30 mg/kg) [%] | Survival days (P. berghei; Pb 1 × 30 mg/kg) [days] | RSA values ± SEM (survival) ([3]; 88 nM) [%] | RSA values ± SEM (survival) ([3]; 175 nM) [%] | RSA values ± SEM (survival) ([3]; 350 nM) [%] | RSA values ± SEM (survival) ([3]; 700 nM) | RSA values ± SEM (survival) ([3]; 49 nM) | IC50 K1 [6] [ng/mL] | IC50 NF54 [2] [ng/mL] | Conc. (solubility) [7] | further results
c1cc([C@H]2CC[C@]3(CC2)OO[C@]2(O3)C3CC4CC(C3)CC2C4)ccc1OCCN1CCOCC1 [Compound C1, reference compound] | 79.0 | 40.6 | 563 | 99.5 | 15.2 | 98.1 | >30 | 0.93 ± 0.93 | 0.73 ± 1.03 | 0.73 ± 1.03 | 0.73 ± 1.03% |  |  |  |  | solubility at 1 h ([1]; fasted state simulated gastric fluid (FaSSGF), 37 °C, fassgf or other biorelevant, thermodynamic from solid, FaSSGF, 37° C., 1 hour, read-out: Conc. (solubility)): 51.9 µg/mL (≈ 111 µM); solubility at 5 h ([1]; fasted state simulated intestinal fluid (FaSSIF-V2), 37 °C, fassif, thermodynamic from solid, FaSSIF-V2, 37° C., 5 hours, read-out: Conc. (solubility)): 22.3 µg/mL (≈ 47.5 µM); solubility at 5 h ([1]; fed state simulated intestinal fluid (FeSSIF-V2), 37 °C, fessif, thermodynamic from solid, FeSSIF-V2, 37° C., 5 hours, read-out: Conc. (solubility)): 557 µg/mL (≈ 1190 µM); IC50 ([2]; Plasmodium falciparum): 2 ng/mL (≈ 0.00426 µM)
C[C@H]1[C@@H](O)O[C@@H]2O[C@@]3(C)CC[C@H]4[C@H](C)CC[C@@H]1[C@@]24OO3 [DHA, Dihydroartemisinin, reference compound] |  |  |  |  |  |  |  | 60.03 ± 4.99 | 47.94 ± 3.88 | 37.67 ± 3.65 | 33% and 33.02 ± 4.39% | 74% and 73.5 ± 12.3% |  |  |  | 
c1cc(C2CCC3(CC2)OOC2(O3)C3CC4CC(C3)CC2C4)ccc1OCCC1CCNCC1 (stereo not drawn) [Compound (2), cis-Adamantane-2-spiro-3′-8′-[4′-[2′-(4′-piperidinyl)ethoxy]phenyl]-1′,2′,4′-trioxaspiro [4.5]decane] | 5.6 | 293 | 1632 | 99.4 | 13.4 | 99.5 | >30 | 0 | 0 | 0 | 0% | 0.76 ± 0.60% | 1.4 (≈ 0.00299 µM) | 1.4 (≈ 0.00299 µM) | <1^c μg/mL | CLint H (CLint, H): < 7 µL/min/mg; CLint D (CLint, D): 9 µL/min/mg; CLint R (CLint, R): < 7 µL/min/mg; CLint M (CLint, M): 16 µL/min/mg; IC50 [4]: > 20 µM; Time Dependent Inhibition [5]: none; growth of the artemisinin-resistant isolate ([3]; 700, 350, 175 and 88 nM): completely inhibiting the growth
CC1(C)CC(O)(COc2ccc([C@H]3CC[C@]4(CC3)OOC3(O4)C4CC5CC(C4)CC3C5)cc2)CC(C)(C)N1 (stereo partly drawn) [Compound (1), cis-Adamantane-2-spiro-3′-8′-[4′-[(4′-hydroxy-2′,2′,6′,6′-tetramethyl-4′-piperidinyl)methoxy]phenyl]-1′,2′,4′-trioxaspiro[4.5]decane] | 10.1 | 1516 | >2000 | 99.1 | 13.6 | 99.6 | >30 | 0.16 ± 0.23 | 0.11 ± 0.08 | 0 | 0% | 1.29 ± 1.24% | 1.2 (≈ 0.00228 µM) | 0.9 (≈ 0.00171 µM) | 10.6 µg/mL | 
